Experimental data published in ChEMBL document CHEMBL4823300, “Design, synthesis and anticancer activity of sulfenylated imidazo-fused heterocycles” (Bioorg Med Chem Lett, 2021).
Activity calls are given as the source filed them. No cut-off for these calls is given here.

Columns and labels:
A549 = assay: Anticancer activity against human A549 cells assessed as growth inhibition incubated for 48 hrs by MTT assay; assay type: functional, cell-based; conditions: A549, 48 h
HepG2 [1] = assay: Induction of apoptosis in human HepG2 cells assessed as necrotic cells at 10 uM incubated for 48 hrs by annexin V-FITC/propidium iodide (AV/PI) dual staining assay (reference value: 1.06%); assay type: functional
HepG2 [2] = assay: Induction of apoptosis in human HepG2 cells assessed as early apoptotic cells at 5 uM incubated for 48 hrs by annexin V-FITC/propidium iodide (AV/PI) dual staining assay (reference value: 3.87%); assay type: functional
HEK293 = assay: Anticancer activity against human HEK293 cells assessed as growth inhibition incubated for 48 hrs by MTT assay; assay type: cell-based; conditions: HEK293, 48 h
HepG2 [3] = assay: Cell cycle arrest in human HepG2 cells assessed as accumulation at G2/M phase at 10 uM (reference value: 3.72%); assay type: functional
HepG2 [4] = assay: Induction of apoptosis in human HepG2 cells assessed as late apoptotic cells at 10 uM incubated for 48 hrs by annexin V-FITC/propidium iodide (AV/PI) dual staining assay (reference value: 4.07%); assay type: functional
HepG2 [5] = assay: Induction of apoptosis in human HepG2 cells assessed as necrotic cells at 5 uM incubated for 48 hrs by annexin V-FITC/propidium iodide (AV/PI) dual staining assay (reference value: 1.06%); assay type: functional
HepG2 [6] = assay: Cell cycle arrest in human HepG2 cells assessed as accumulation at G2/M phase at 5 uM (reference value: 3.72%); assay type: functional
HepG2 [7] = assay: Induction of apoptosis in human HepG2 cells assessed as late apoptotic cells at 5 uM incubated for 48 hrs by annexin V-FITC/propidium iodide (AV/PI) dual staining assay (reference value: 4.07%); assay type: functional
HepG2 [8] = assay: Induction of apoptosis in human HepG2 cells assessed as early apoptotic cells at 10 uM incubated for 48 hrs by annexin V-FITC/propidium iodide (AV/PI) dual staining assay (reference value: 3.87%); assay type: functional
SK-MEL-28 = assay: Anticancer activity against human SK-MEL-28 cells assessed as growth inhibition incubated for 48 hrs by MTT assay; assay type: functional, cell-based; conditions: SK-MEL-28, 48 h
U-87 MG = assay: Anticancer activity against human U-87 MG cells assessed as growth inhibition incubated for 48 hrs by MTT assay; assay type: functional, cell-based, U-87MG ATCC
NIH3T3 = assay: Anticancer activity against mouse NIH3T3 cells assessed as growth inhibition incubated for 48 hrs by MTT assay; assay type: cell-based; conditions: NIH3T3, 48 h
HepG2 [9] = assay: Cell cycle arrest in human HepG2 cells assessed as accumulation at G0/G1 phase at 10 uM (reference value: 92.33%); assay type: functional
HeLa = assay: Anticancer activity against human HeLa cells assessed as growth inhibition incubated for 48 hrs by MTT assay; assay type: functional, cell-based
HepG2 [10] = assay: Induction of apoptosis in human HepG2 cells assessed as nuclear condensation at 5 to 10 uM incubated for 48 hrs by Hoechst staining based assay relative to control; assay type: functional, cell-based; conditions: dose 5-10 µM
MDA-MB-231 = assay: Anticancer activity against human MDA-MB-231 cells assessed as growth inhibition incubated for 48 hrs by MTT assay; assay type: functional, cell-based; conditions: MDA-MB-231, 48 h
HepG2 [11] = assay: Cell cycle arrest in human HepG2 cells assessed as accumulation at S phase at 10 uM (reference value: 4.66%); assay type: functional
HepG2 [12] = assay: Cell cycle arrest in human HepG2 cells assessed as accumulation at S phase at 5 uM (reference value: 4.66%); assay type: functional
HepG2 [13] = assay: Induction of apoptosis in human HepG2 cells assessed as live cells at 5 uM incubated for 48 hrs by annexin V-FITC/propidium iodide (AV/PI) dual staining assay (reference value: 91.01%); assay type: functional
HepG2 [14] = assay: Cell cycle arrest in human HepG2 cells assessed as accumulation at SubG1 phase at 10 uM (reference value: 7.13%); assay type: functional
HepG2 [15] = assay: Induction of apoptosis in human HepG2 cells assessed as decrease in mitochondrial membrane potential at 5 to 10 uM incubated for 48 hrs by JC-1 staining based assay relative to control; assay type: functional, cell-based; conditions: dose 5-10 µM
HepG2 [16] = assay: Cell cycle arrest in human HepG2 cells assessed as accumulation at SubG1 phase at 5 uM (reference value: 7.13%); assay type: functional
DU-145 = assay: Anticancer activity against human DU-145 cells assessed as growth inhibition incubated for 48 hrs by MTT assay; assay type: functional, cell-based; conditions: DU-145, 48 h
HepG2 [17] = assay: Anticancer activity against human HepG2 cells assessed as growth inhibition incubated for 48 hrs by MTT assay; assay type: functional, cell-based; conditions: HepG2, 48 h
HepG2 [18] = assay: Cell cycle arrest in human HepG2 cells assessed as accumulation at G0/G1 phase at 5 uM (reference value: 92.33%); assay type: functional
HepG2 [19] = assay: Induction of apoptosis in human HepG2 cells assessed as live cells at 10 uM incubated for 48 hrs by annexin V-FITC/propidium iodide (AV/PI) dual staining assay (reference value: 91.01%); assay type: functional

CSc1ccc(-c2nc3ccccn3c2Sc2ccccc2)cc1
IC50 (A549): 13.6 µM | Activity (HepG2 [1]): 0.22% | Activity (HepG2 [2]): 18.94% | IC50 (HEK293): > 100 µM | Activity (HepG2 [3]): 34.97% | Activity (HepG2 [4]): 23.93% | Activity (HepG2 [5]): 0.28% | Activity (HepG2 [6]): 10.85% | Activity (HepG2 [7]): 15.17% | Activity (HepG2 [8]): 27.63% | IC50 (SK-MEL-28): 67.7 µM | IC50 (U-87 MG): 26.9 µM | IC50 (NIH3T3): > 100 µM | Activity (HepG2 [9]): 63.48% | IC50 (HeLa): 30 µM | Activity (HepG2 [10]): Active | IC50 (MDA-MB-231): 23.5 µM | Activity (HepG2 [11]): 1.07% | Activity (HepG2 [12]): 0.56% | Activity (HepG2 [13]): 65.61% | Activity (HepG2 [14]): 1.57% | Activity (HepG2 [15]): Active | Activity (HepG2 [16]): 11.43% | IC50 (DU-145): 52.1 µM | IC50 (HepG2 [17]): 7.6 µM | Activity (HepG2 [18]): 83.03% | Activity (HepG2 [19]): 48.22%
